Experimental data as given in ChEMBL document CHEMBL1131112, “Matrix metalloproteinase inhibitors: a structure-activity study” (J Med Chem, 1998).

Columns and labels:
[1] = biological target: Matrix metalloproteinase-9 (Homo sapiens, UniProt P14780)
Description: The compound was tested for its binding affinity towards 92 kDa gelatinase (Matrix metalloprotease-9)

[2] = biological target: Neutrophil collagenase (Homo sapiens, UniProt P22894)
Description: The compound was tested for its binding affinity towards neutrophil collagenase (Matrix metalloprotease-8)

[3] = biological target: 72 kDa type IV collagenase (Homo sapiens, UniProt P08253)
72 kDa type IV collagenase, sequence (P08253 whole entry): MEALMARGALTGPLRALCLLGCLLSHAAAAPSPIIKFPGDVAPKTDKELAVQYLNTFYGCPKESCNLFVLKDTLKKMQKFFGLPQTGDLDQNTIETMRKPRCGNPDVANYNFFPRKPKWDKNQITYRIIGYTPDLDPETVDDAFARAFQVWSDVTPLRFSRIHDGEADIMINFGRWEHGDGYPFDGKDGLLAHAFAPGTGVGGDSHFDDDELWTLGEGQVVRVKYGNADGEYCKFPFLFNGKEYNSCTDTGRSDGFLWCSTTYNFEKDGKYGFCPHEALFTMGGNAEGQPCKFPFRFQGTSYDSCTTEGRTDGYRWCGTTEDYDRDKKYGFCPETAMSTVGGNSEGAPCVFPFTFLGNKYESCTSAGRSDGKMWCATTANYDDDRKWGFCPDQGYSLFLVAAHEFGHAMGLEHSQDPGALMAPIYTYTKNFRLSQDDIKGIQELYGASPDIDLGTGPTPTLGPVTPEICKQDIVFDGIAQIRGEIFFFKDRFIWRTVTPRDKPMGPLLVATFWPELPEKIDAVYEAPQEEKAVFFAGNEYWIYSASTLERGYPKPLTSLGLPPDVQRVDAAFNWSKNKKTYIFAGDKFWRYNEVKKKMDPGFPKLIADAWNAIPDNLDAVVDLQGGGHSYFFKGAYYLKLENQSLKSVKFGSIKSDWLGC
Description: Binding affinity towards 72 kDa gelatinase (Matrix metalloprotease-2)

Neutrophil collagenase, sequence (P22894 whole entry): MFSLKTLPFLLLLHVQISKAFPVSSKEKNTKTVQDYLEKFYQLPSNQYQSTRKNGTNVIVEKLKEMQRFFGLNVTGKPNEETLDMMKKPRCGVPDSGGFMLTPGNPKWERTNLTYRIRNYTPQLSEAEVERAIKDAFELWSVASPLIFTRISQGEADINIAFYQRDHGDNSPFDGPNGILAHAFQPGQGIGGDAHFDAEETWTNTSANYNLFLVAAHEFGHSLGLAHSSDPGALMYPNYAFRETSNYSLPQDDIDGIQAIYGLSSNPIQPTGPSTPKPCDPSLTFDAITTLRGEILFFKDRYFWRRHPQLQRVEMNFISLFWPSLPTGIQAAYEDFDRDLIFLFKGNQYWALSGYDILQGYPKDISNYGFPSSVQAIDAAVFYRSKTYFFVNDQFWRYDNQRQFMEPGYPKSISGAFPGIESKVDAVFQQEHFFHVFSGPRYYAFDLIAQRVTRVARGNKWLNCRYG
Matrix metalloproteinase-9, sequence (P14780 whole entry): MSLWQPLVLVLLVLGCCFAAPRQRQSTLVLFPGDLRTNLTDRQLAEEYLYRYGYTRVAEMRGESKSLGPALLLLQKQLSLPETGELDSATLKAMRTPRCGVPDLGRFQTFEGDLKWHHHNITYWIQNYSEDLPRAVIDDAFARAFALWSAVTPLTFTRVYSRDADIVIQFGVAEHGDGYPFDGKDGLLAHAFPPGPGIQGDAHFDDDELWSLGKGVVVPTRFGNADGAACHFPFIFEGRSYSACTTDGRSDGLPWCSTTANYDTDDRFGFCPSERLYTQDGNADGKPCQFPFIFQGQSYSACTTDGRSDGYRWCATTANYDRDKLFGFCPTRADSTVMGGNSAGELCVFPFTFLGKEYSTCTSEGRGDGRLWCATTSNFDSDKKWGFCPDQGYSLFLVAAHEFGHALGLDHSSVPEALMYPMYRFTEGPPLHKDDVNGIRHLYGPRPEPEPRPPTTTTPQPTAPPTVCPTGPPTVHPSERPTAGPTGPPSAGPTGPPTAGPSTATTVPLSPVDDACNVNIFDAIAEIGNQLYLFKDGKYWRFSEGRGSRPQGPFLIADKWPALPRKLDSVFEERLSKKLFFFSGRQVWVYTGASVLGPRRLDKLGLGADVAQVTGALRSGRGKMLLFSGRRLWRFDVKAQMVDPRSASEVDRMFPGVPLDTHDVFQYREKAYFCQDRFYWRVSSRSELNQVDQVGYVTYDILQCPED

Ki [1] [nM]	Ki [2] [nM]	Ki [3] [nM]	Compound
1.7	0.33	1.9	CC(C)C[C@H](CC(=O)NO)C(=O)N[C@H](Cc1ccncc1)C(=O)NCCc1ccc(O)cc1
5	1.2	2	CC(C)C[C@H](CC(=O)NO)C(=O)N[C@@H](Cc1c[nH]c2ccccc12)C(=O)NCc1ccccc1
6.9	14	13	CC(C)C[C@H](CC(=O)NO)C(=O)N[C@H](Cc1ccc2ccccc2c1)C(=O)N[C@@H](C)c1ccccc1
1.5	0.54	1.3	CNC(=O)[C@@H](Cc1cccc2cccnc12)NC(=O)[C@@H](CC(=O)NO)CC(C)C
100	17	170	CNC(=O)[C@H](Cc1c[nH]c2ccccc12)NC(=O)[C@@H](CC(=O)O)CC(C)C
0.96	–	–	CNC(=O)[C@@H](Cc1ccccc1)NC(=O)[C@@H](CC(=O)NO)CC(C)C
4.1	2.4	4	CNC(=O)[C@@H](Cc1ccc(-c2ccccc2)cc1)NC(=O)[C@@H](CC(=O)NO)CC(C)C
0.63	1.6	0.66	CCCCCCCC[C@H](CC(=O)NO)C(=O)N[C@@H](Cc1c[nH]c2ccccc12)C(=O)NC
1.2	0.34	0.88	CC(C)C[C@H](CC(=O)NO)C(=O)N[C@@H](Cc1c[nH]c2ccccc12)C(=O)NC1CC1
3	1.6	2.6	CC(C)C[C@H](CC(=O)NO)C(=O)N[C@@H](Cc1c[nH]c2ccccc12)C(=O)NC1CCCC1
1.1	0.1	0.52	CC(C)C[C@H](CC(=O)NO)C(=O)N[C@@H](Cc1c[nH]c2ccccc12)C(=O)NCCc1ccc(O)cc1
1.4	0.49	0.73	CC(C)C[C@H](CC(=O)NO)C(=O)N[C@@H](Cc1c[nH]c2ccccc12)C(=O)NCCc1ccccn1
0.83	0.45	0.44	CNC(=O)[C@@H](Cc1csc2ccccc12)NC(=O)[C@@H](CC(=O)NO)CC(C)C
1.1	0.59	1.3	CC(C)C[C@H](CC(=O)NO)C(=O)N[C@@H](Cc1c[nH]c2ccccc12)C(=O)NCCCn1ccnc1
1.7	3.7	6.9	CC(C)C[C@H](CC(=O)NO)C(=O)N[C@@H](Cc1c[nH]c2ccccc12)C(=O)NCc1ccc2c(c1)OCO2
580	460	71000	CNC(=O)[C@H](Cc1c[nH]c2ccccc12)NC(=O)[C@@H](CC(=O)NOCC(=O)OC)CC(C)C
2.5	0.7	1.9	CC(C)C[C@H](CC(=O)NO)C(=O)N[C@H](Cc1ccncc1)C(=O)N[C@@H](C)c1ccccc1
1.7	4.5	8.1	CC(C)C[C@H](CC(=O)NO)C(=O)N[C@H](Cc1ccc2ccccc2c1)C(=O)NCCc1ccc(O)cc1
7.9	7.7	6.3	CNC(=O)[C@H](Cc1c[nH]c2ccccc12)NC(=O)[C@@H](CC(=O)NOC)CC(C)C
13	27	19	CC(C)C[C@H](CC(=O)NO)C(=O)N[C@@H](Cc1c[nH]c2ccccc12)C(=O)N1CCCCC1

Ki [1] [nM]	Ki [2] [nM]	Ki [3] [nM]	Compound
1.5	0.29	0.6	CC(C)C[C@H](CC(=O)NO)C(=O)N[C@@H](Cc1c[nH]c2ccccc12)C(=O)NCc1ccncc1
0.76	0.35	0.44	CC(C)C[C@H](CC(=O)NO)C(=O)N[C@@H](Cc1c[nH]c2ccccc12)C(=O)NCCO
1.9	0.39	0.71	CC(C)C[C@H](CC(=O)NO)C(=O)N[C@@H](Cc1c[nH]c2ccccc12)C(=O)NCCCN1CCOCC1
13	16	11	CNC(=O)[C@H](Cc1c[nH]c2ccccc12)NC(=O)[C@@H](CC(=O)NOCc1ccccc1)CC(C)C
69	77	55	CC(C)C[C@H](CC(=O)NO)C(=O)N(C)[C@@H](Cc1c[nH]c2ccccc12)C(=O)NCCCN1CCOCC1
3.5	4.5	3	CC(C)C[C@H](CC(=O)NO)C(=O)N[C@H](Cc1ccc2ccccc2c1)C(=O)NCCCN1CCOCC1
0.54	0.3	0.57	CCCC[C@H](CC(=O)NO)C(=O)N[C@@H](Cc1c[nH]c2ccccc12)C(=O)NC
1.5	0.96	–	CC(C)C[C@H](CC(=O)NO)C(=O)N[C@H](Cc1ccncc1)C(=O)NCc1ccccc1
26	17	20	CC(C)C[C@H](CC(=O)NO)C(=O)N[C@@H](Cc1c[nH]c2ccccc12)C(=O)N1CCCC1
2.7	0.63	–	CC(C)C[C@H](CC(=O)NO)C(=O)N[C@H](Cc1cccnc1)C(=O)NCc1ccccc1
22	8.5	19	CC(C)C[C@H](CC(=O)NO)C(=O)N[C@@H](Cc1c[nH]c2ccccc12)C(=O)N(C)C
0.7	1	1	CNC(=O)[C@@H](Cc1cnc2ccccc2c1)NC(=O)[C@@H](CC(=O)NO)CC(C)C
3.6	6.8	6.7	CC(C)C[C@H](CC(=O)NO)C(=O)N[C@H](Cc1ccc(-c2ccccc2)cc1)C(=O)NCCCN1CCOCC1
6.3	13	25	CC(C)C[C@H](CC(=O)NO)C(=O)N[C@H](Cc1ccc(-c2ccccc2)cc1)C(=O)N[C@@H](C)c1ccccc1
0.78	0.11	0.52	CC(C)C[C@H](CC(=O)NO)C(=O)N[C@@H](Cc1c[nH]c2ccccc12)C(=O)NCc1cccnc1
8.7	6.9	3.5	CC(C)C[C@H](CC(=O)NO)C(=O)N[C@@H](Cc1c[nH]c2ccccc12)C(=O)N1CCOCC1
0.58	0.3	0.59	CC(C)C[C@H](CC(=O)NO)C(=O)N[C@H](Cc1cccc2ccccc12)C(=O)NCCCN1CCOCC1
1.3	0.64	0.42	CNC(=O)[C@@H](Cc1cccc2ccccc12)NC(=O)[C@@H](CC(=O)NO)CC(C)C
2.5	0.65	1.1	CNC(=O)[C@@H](CC(C)C)NC(=O)[C@@H](CC(=O)NO)CC(C)C
18	12	42	CNC(=O)[C@H](Cc1c[nH]c2ccccc12)NC(=O)[C@@H](CC(=O)NO)OC(C)C

Ki [1] [nM]	Ki [2] [nM]	Ki [3] [nM]	Compound
0.68	0.43	0.54	CC(C)C[C@H](CC(=O)NO)C(=O)N[C@@H](Cc1c[nH]c2ccccc12)C(=O)NCc1ccccn1
26	7.8	43	CCCCCO[C@H](CC(=O)NO)C(=O)N[C@@H](Cc1c[nH]c2ccccc12)C(=O)NC
3.7	0.75	0.64	CC(C)C[C@H](CC(=O)NO)C(=O)N[C@@H](Cc1c[nH]c2ccccc12)C(=O)N[C@@H](C)c1ccccc1
42	21	17	CNC(=O)[C@H](Cc1c[nH]c2ccccc12)N(C)C(=O)[C@@H](CC(=O)NO)CC(C)C
0.41	0.24	0.21	CCCCCC[C@H](CC(=O)NO)C(=O)N[C@@H](Cc1c[nH]c2ccccc12)C(=O)NC
0.99	1.3	0.7	CNC(=O)[C@@H](Cc1ccc2ccccc2c1)NC(=O)[C@@H](CC(=O)NO)CC(C)C
6.5	13	8.1	CC(C)C[C@H](CC(=O)NO)C(=O)N[C@H](Cc1ccc(-c2ccccc2)cc1)C(=O)NCCc1ccc(O)cc1
7.1	6.5	4.6	CCCCCNC(=O)[C@H](Cc1c[nH]c2ccccc12)NC(=O)[C@@H](CC(=O)NO)CC(C)C
3	3.6	–	CC(C)C[C@H](CC(=O)NO)C(=O)N[C@H](Cc1ccc(-c2ccccc2)cc1)C(=O)NCc1ccccc1
0.9	0.56	–	CC(C)C[C@H](CC(=O)NO)C(=O)N[C@@H](Cc1c[nH]c2ccccc12)C(=O)NCc1nccs1
5.3	7.7	18	CC(C)C[C@H](CC(=O)NO)C(=O)N[C@H](Cc1ccc2ccccc2c1)C(=O)NCc1ccccc1
1.6	0.66	–	CNC(=O)[C@H](Cc1cn(C)c2ccccc12)NC(=O)[C@@H](CC(=O)NO)CC(C)C
3	5.2	7.3	CC(C)C[C@H](CC(=O)NO)C(=O)N[C@@H](Cc1c[nH]c2ccccc12)C(=O)NCc1nc2ccccc2[nH]1
1.7	0.49	0.92	CC(C)C[C@H](CC(=O)NO)C(=O)N[C@@H](Cc1c[nH]c2ccccc12)C(=O)NCc1ccco1
2.8	1.7	0.96	CNC(=O)[C@@H](Cc1ccncc1)NC(=O)[C@@H](CC(=O)NO)CC(C)C
1.1	0.94	–	CC(C)C[C@H](CC(=O)NO)C(=O)N[C@@H](Cc1c[nH]c2ccccc12)C(=O)NCCNC(=O)OCc1ccccc1
30	24	–	CC(C)CC(CC(=O)NO)C(=O)N[C@@H](Cc1c[nH]c2ccccc12)C(=O)NC1CCc2ccccc21 (single isomer, unassigned)
100	130	–	CC(C)C[C@H](CC(=O)NO)C(=O)N[C@@H](Cc1c[nH]c2ccccc12)C(=O)NC1CCc2ccccc21 (single isomer, unassigned)
2.3	0.53	0.47	CNC(=O)[C@@H](CC(C)C)NC(=O)C(CC(C)C)C(O)C(=O)NO (single isomer, unassigned)
1.7	0.41	0.89	CNC(=O)[C@H](Cc1c[nH]c2ccccc12)NC(=O)C(CC(C)C)C(O)C(=O)NO (single isomer, unassigned)
